According to the NIST ThermoML archive (doi:10.1016/j.jct.2011.08.016):
Numbers after ± are expanded uncertainties.

Assay: xn = mol fraction of the nth substance listed
Settings: Liquid, Vibrating tube method

In the case of `CCCCCCCCCC` [decane] + CCCCCCC, the mass density (343.11 K, 10000 kPa, x2 = 0.2594) is reported as 691.9 ± 0.46 kg/m3, the mass density (343.11 K, 10000 kPa, x2 = 0.952) is reported as 656.24 ± 0.49 kg/m3 and the mass density (343.11 K, 11000 kPa, x2 = 0.2594) is reported as 692.89 ± 0.47 kg/m3. For the same compound, the mass density (343.11 K, 11000 kPa, x2 = 0.952) was 657.38 ± 0.5 kg/m3, the mass density (343.11 K, 12000 kPa, x2 = 0.2594) was 693.86 ± 0.47 kg/m3 and the mass density (343.11 K, 12000 kPa, x2 = 0.952) was 658.49 ± 0.51 kg/m3. It also gave a mass density (343.11 K, 13000 kPa, x2 = 0.2594) of 694.82 ± 0.48 kg/m3, a mass density (343.11 K, 13000 kPa, x2 = 0.952) of 659.59 ± 0.51 kg/m3 and a mass density (343.11 K, 14000 kPa, x2 = 0.2594) of 695.76 ± 0.49 kg/m3. The mass density (343.11 K, 14000 kPa, x2 = 0.952) was 660.67 ± 0.52 kg/m3, the mass density (343.11 K, 15000 kPa, x2 = 0.2594) was 696.69 ± 0.49 kg/m3 and the mass density (343.11 K, 15000 kPa, x2 = 0.952) was 661.74 ± 0.53 kg/m3. For the same compound, the mass density (343.11 K, 16000 kPa, x2 = 0.2594) was 697.6 ± 0.5 kg/m3, the mass density (343.11 K, 16000 kPa, x2 = 0.952) was 662.78 ± 0.54 kg/m3 and the mass density (343.11 K, 17000 kPa, x2 = 0.2594) was 698.5 ± 0.51 kg/m3. The mass density (343.11 K, 17000 kPa, x2 = 0.952) was 663.81 ± 0.54 kg/m3, the mass density (343.11 K, 18000 kPa, x2 = 0.2594) was 699.38 ± 0.51 kg/m3 and the mass density (343.11 K, 18000 kPa, x2 = 0.952) was 664.84 ± 0.55 kg/m3. The mass density (343.11 K, 19000 kPa, x2 = 0.2594) was 700.22 ± 0.52 kg/m3, the mass density (343.11 K, 19000 kPa, x2 = 0.952) was 665.84 ± 0.56 kg/m3 and the mass density (343.11 K, 20000 kPa, x2 = 0.2594) was 701.09 ± 0.53 kg/m3. It also gave a mass density (343.11 K, 20000 kPa, x2 = 0.952) of 666.82 ± 0.57 kg/m3, a mass density (343.11 K, 21000 kPa, x2 = 0.2594) of 701.92 ± 0.53 kg/m3 and a mass density (343.11 K, 21000 kPa, x2 = 0.952) of 667.78 ± 0.58 kg/m3. The mass density (343.11 K, 22000 kPa, x2 = 0.2594) was 702.73 ± 0.54 kg/m3, the mass density (343.11 K, 22000 kPa, x2 = 0.952) was 668.7 ± 0.58 kg/m3 and the mass density (343.11 K, 23000 kPa, x2 = 0.2594) was 703.51 ± 0.55 kg/m3. For the same compound, the mass density (343.11 K, 23000 kPa, x2 = 0.952) was 669.62 ± 0.59 kg/m3, the mass density (343.11 K, 24000 kPa, x2 = 0.2594) was 704.28 ± 0.55 kg/m3 and the mass density (343.11 K, 24000 kPa, x2 = 0.952) was 670.52 ± 0.6 kg/m3. It also gave a mass density (343.11 K, 25000 kPa, x2 = 0.2594) of 705.05 ± 0.56 kg/m3, a mass density (343.11 K, 25000 kPa, x2 = 0.952) of 671.4 ± 0.61 kg/m3 and a mass density (353.06 K, 1000 kPa, x2 = 0.0531) of 682.62 ± 0.42 kg/m3. It also gave a mass density (353.06 K, 2000 kPa, x2 = 0.0531) of 683.77 ± 0.42 kg/m3, a mass density (353.06 K, 3000 kPa, x2 = 0.0531) of 684.88 ± 0.42 kg/m3 and a mass density (353.06 K, 4000 kPa, x2 = 0.0531) of 685.98 ± 0.43 kg/m3. It also gave a mass density (353.06 K, 5000 kPa, x2 = 0.0531) of 687.07 ± 0.43 kg/m3, a mass density (353.06 K, 6000 kPa, x2 = 0.0531) of 688.13 ± 0.44 kg/m3 and a mass density (353.06 K, 7000 kPa, x2 = 0.0531) of 689.17 ± 0.44 kg/m3. The mass density (353.06 K, 8000 kPa, x2 = 0.0531) was 690.21 ± 0.45 kg/m3, the mass density (353.06 K, 9000 kPa, x2 = 0.0531) was 691.24 ± 0.45 kg/m3 and the mass density (353.06 K, 10000 kPa, x2 = 0.0531) was 692.24 ± 0.46 kg/m3. It also gave a mass density (353.06 K, 11000 kPa, x2 = 0.0531) of 693.24 ± 0.47 kg/m3, a mass density (353.06 K, 12000 kPa, x2 = 0.0531) of 694.22 ± 0.47 kg/m3 and a mass density (353.06 K, 13000 kPa, x2 = 0.0531) of 695.18 ± 0.48 kg/m3. It also gave a mass density (353.06 K, 14000 kPa, x2 = 0.0531) of 696.13 ± 0.48 kg/m3, a mass density (353.06 K, 15000 kPa, x2 = 0.0531) of 697.07 ± 0.49 kg/m3 and a mass density (353.06 K, 16000 kPa, x2 = 0.0531) of 698 ± 0.5 kg/m3. For the same compound, the mass density (353.06 K, 17000 kPa, x2 = 0.0531) was 698.9 ± 0.5 kg/m3, the mass density (353.06 K, 18000 kPa, x2 = 0.0531) was 699.8 ± 0.51 kg/m3 and the mass density (353.06 K, 19000 kPa, x2 = 0.0531) was 700.69 ± 0.51 kg/m3. For the same compound, the mass density (353.06 K, 20000 kPa, x2 = 0.0531) was 701.57 ± 0.52 kg/m3, the mass density (353.06 K, 21000 kPa, x2 = 0.0531) was 702.43 ± 0.53 kg/m3 and the mass density (353.06 K, 22000 kPa, x2 = 0.0531) was 703.3 ± 0.53 kg/m3. It also gave a mass density (353.06 K, 23000 kPa, x2 = 0.0531) of 704.13 ± 0.54 kg/m3, a mass density (353.06 K, 24000 kPa, x2 = 0.0531) of 704.96 ± 0.55 kg/m3 and a mass density (353.06 K, 25000 kPa, x2 = 0.0531) of 705.78 ± 0.55 kg/m3. It also gave a mass density (353.08 K, 1000 kPa, x2 = 0.5219) of 662.57 ± 0.43 kg/m3, a mass density (353.08 K, 1000 kPa, x2 = 0.777) of 647.84 ± 0.43 kg/m3 and a mass density (353.08 K, 2000 kPa, x2 = 0.5219) of 663.78 ± 0.43 kg/m3. The mass density (353.08 K, 2000 kPa, x2 = 0.777) was 649.19 ± 0.44 kg/m3, the mass density (353.08 K, 3000 kPa, x2 = 0.5219) was 664.95 ± 0.43 kg/m3 and the mass density (353.08 K, 3000 kPa, x2 = 0.777) was 650.47 ± 0.44 kg/m3. The mass density (353.08 K, 4000 kPa, x2 = 0.5219) was 666.13 ± 0.44 kg/m3, the mass density (353.08 K, 4000 kPa, x2 = 0.777) was 651.73 ± 0.45 kg/m3 and the mass density (353.08 K, 5000 kPa, x2 = 0.5219) was 667.28 ± 0.45 kg/m3. For the same compound, the mass density (353.08 K, 5000 kPa, x2 = 0.777) was 653.01 ± 0.45 kg/m3, the mass density (353.08 K, 6000 kPa, x2 = 0.5219) was 668.44 ± 0.45 kg/m3 and the mass density (353.08 K, 6000 kPa, x2 = 0.777) was 654.25 ± 0.46 kg/m3. For the same compound, the mass density (353.08 K, 7000 kPa, x2 = 0.5219) was 669.57 ± 0.46 kg/m3, the mass density (353.08 K, 7000 kPa, x2 = 0.777) was 655.46 ± 0.47 kg/m3 and the mass density (353.08 K, 8000 kPa, x2 = 0.5219) was 670.7 ± 0.46 kg/m3. It also gave a mass density (353.08 K, 8000 kPa, x2 = 0.777) of 656.67 ± 0.47 kg/m3, a mass density (353.08 K, 9000 kPa, x2 = 0.5219) of 671.82 ± 0.47 kg/m3 and a mass density (353.08 K, 9000 kPa, x2 = 0.777) of 657.88 ± 0.48 kg/m3. For the same compound, the mass density (353.08 K, 10000 kPa, x2 = 0.5219) was 672.93 ± 0.48 kg/m3, the mass density (353.08 K, 10000 kPa, x2 = 0.777) was 659.06 ± 0.49 kg/m3 and the mass density (353.08 K, 11000 kPa, x2 = 0.5219) was 674.03 ± 0.48 kg/m3. It also gave a mass density (353.08 K, 11000 kPa, x2 = 0.777) of 660.22 ± 0.49 kg/m3, a mass density (353.08 K, 12000 kPa, x2 = 0.5219) of 675.1 ± 0.49 kg/m3 and a mass density (353.08 K, 12000 kPa, x2 = 0.777) of 661.36 ± 0.5 kg/m3. The mass density (353.08 K, 13000 kPa, x2 = 0.5219) was 676.17 ± 0.49 kg/m3, the mass density (353.08 K, 13000 kPa, x2 = 0.777) was 662.49 ± 0.51 kg/m3 and the mass density (353.08 K, 14000 kPa, x2 = 0.5219) was 677.22 ± 0.5 kg/m3. The mass density (353.08 K, 14000 kPa, x2 = 0.777) was 663.61 ± 0.51 kg/m3, the mass density (353.08 K, 15000 kPa, x2 = 0.5219) was 678.26 ± 0.51 kg/m3 and the mass density (353.08 K, 15000 kPa, x2 = 0.777) was 664.7 ± 0.52 kg/m3. It also gave a mass density (353.08 K, 16000 kPa, x2 = 0.5219) of 679.28 ± 0.52 kg/m3, a mass density (353.08 K, 16000 kPa, x2 = 0.777) of 665.77 ± 0.53 kg/m3 and a mass density (353.08 K, 17000 kPa, x2 = 0.5219) of 680.26 ± 0.52 kg/m3. The mass density (353.08 K, 17000 kPa, x2 = 0.777) was 666.82 ± 0.54 kg/m3, the mass density (353.08 K, 18000 kPa, x2 = 0.5219) was 681.28 ± 0.53 kg/m3 and the mass density (353.08 K, 18000 kPa, x2 = 0.777) was 667.86 ± 0.54 kg/m3. For the same compound, the mass density (353.08 K, 19000 kPa, x2 = 0.5219) was 682.2 ± 0.54 kg/m3.
